Laboratory results reported in ChEMBL document CHEMBL4420060, “Combinatorial therapies for the treatment of neoplasias using the opioid growth factor receptor” (2013).
Activity calls are given as the source filed them. No cut-off for these calls is given here.

Tests used:
UMSCC1 [1] = assay: Induction of cell cycle arrest in human UM-SCC-1 cells assessed as accumulation at G1/S phase in presence of OGF after 6 hrs by flow cytometry; format: functional, cell-based
UMSCC1 [2] = assay: Antitumor activity against human UM-SCC-1 cells xenografted in nu/nu mouse assessed as latency time for measurable (62.5 mm3) tumors at 120 mg/kg dosed every 3 days and co-treated with 10 mg/kg OGF (Rvb <=14 days); format: functional
MIA PaCa-2 [3] = assay: Growth inhibition of human MIAPaCa2 cells assessed as decrease in cell number at 0.01 uM incubated for 72 hrs in presence of 1 uM OGF by trypan blue staining assay relative to control; format: functional
MIA PaCa-2 [4] = assay: Growth inhibition of human MIAPaCa2 cells assessed as decrease in cell number at 0.01 uM incubated for 72 hrs in presence of 1 uM OGF by MTS assay relative to control; format: functional
PANC-1 = assay: Growth inhibition of human PANC1 cells assessed as decrease in cell number at 0.01 uM incubated for 72 hrs by MTS assay relative to control; format: functional; conditions: PANC-1, 72 h, read-out: GI
Mus musculus = assay: Effect on plasma OGF level in athymic BALB/c nu/nu nude mouse xenografted with MIAPaCa2 cells at 120 mg/kg dosed every 3 days and co-treated with 10 mg/kg OGF by radioimmunoassay; format: functional, organism-based
MIA PaCa-2 [5] = assay: Antitumor activity against human MIAPaCa2 cells xenografted in athymic BALB/c nu/nu nude mouse assessed as reduction in tumor volume at 120 mg/kg dosed every 3 days and co-treated with 10 mg/kg OGF measured on day 45 after tumor cell inoculation; format: functional; design: scale not given: the % may be the effect or the level left
MIA PaCa-2 [6] = assay: Antitumor activity against human MIAPaCa2 cells xenografted in athymic BALB/c nu/nu nude mouse assessed as latency time for measurable tumor at 10 mg/kg dosed daily measured on day 10 after tumor cell inoculation (reference value: 13.2 +/- 1.8 days); format: functional
MIA PaCa-2 [7] = assay: Antitumor activity against human MIAPaCa2 cells xenografted in athymic BALB/c nu/nu nude mouse assessed as latency time for measurable tumor at 120 mg/kg dosed every 3 days and co-treated with 10 mg/kg OGF measured on day 10 after tumor cell inoculation (reference value: 13.2 +/- 1.8 days); format: functional
[8] = Toxicity in athymic BALB/c nu/nu nude mouse xenografted with human MIAPaCa2 cells assessed as body weight at 120 mg/kg dosed every 3 days and co-treated with 10 mg/kg OGF measured on day 45 after tumor cell inoculation (reference value: 33.3 +/- 1 g); format: organism-based; conditions: in vivo, 72 h

Nc1ccn([C@@H]2O[C@H](CO)[C@@H](O)C2(F)F)c(=O)n1 [GEMCITABINE]
Activity (UMSCC1 [1]): Active | Time (UMSCC1 [2]): 20 days | growth inhibition (GI) (MIA PaCa-2 [3]): 49.2% | growth inhibition (GI) (MIA PaCa-2 [4]): 49% | inhibition of growth at 0.01 µM (PANC-1): 54% | Activity (Mus musculus): inactive | Activity (MIA PaCa-2 [5]): 83% | Time (MIA PaCa-2 [6]): 14.2 days | Time (MIA PaCa-2 [7]): 19.5 days | Activity [8]: 30.6 g
